Some results are limits rather than exact numbers.

Here are results for 37 compounds from patent US7928098B2, “Therapeutic and/or preventive agents for a sleep disorder” (Kyowa Hakko Kirin Co., Ltd., priority 2005, dated 2011).

Turning to `O=C(CN1CCC(O)CC1)Nc1nc(-c2ccco2)c(C(=O)C2CCOCC2)s1` [Compound 448, N-[4-(2-Furyl)-5-(tetrahydropyran-4-ylcarbonyl)thiazol-2-yl]-2-(4-hydroxypiperidino)acetamide], the melting point is 178 to 180 °C. With `O=C(Nc1nc(-c2ccco2)c(C(=O)C2CCOCC2)s1)c1c(F)cccc1F` [Compound 397, 2,6-Difluoro-N-[4-(2-furyl)-5-(tetrahydropyran-4-ylcarbonyl)thiazol-2-yl]benzamide], the melting point fell in the range of 168 to 170 °C. Regarding `O=C(Nc1nc(-c2ccco2)c(C(=O)c2ccccn2)s1)c1ccc2snnc2c1` [Compound 152, N-[4-(2-Furyl)-5-(pyridin-2-ylcarbonyl)thiazol-2-yl]-1,2,3-benzothiadiazole-5-carboxamide], the melting point fell in the range of 213 to 218 °C. For `Nc1nc(-c2ccco2)c(C(=O)C2CCC2)s1` [Compound 329, 2-Amino-4-(2-furyl)thiazol-5-yl cyclobutyl ketone], the melting point was 125 to 160 °C (dec.).

`O=C(Nc1nc(-c2ccco2)c(C(=O)c2ccccn2)s1)c1ccc2c(c1)OCCO2` [Compound 118, N-[4-(2-Furyl)-5-(pyridin-2-ylcarbonyl)thiazol-2-yl]-1,4-benzodioxane-6-carboxamide] came in with a melting point of 189 to 191 °C.

`Cn1ccc(-c2sc(NC(=O)c3ccncc3)nc2-c2ccco2)cc1=O` [Compound 37, N-[4-(2-Furyl)-5-(1-methyl-2-oxo-1,2-dihydropyridin-4-yl)thiazol-2-yl]pyridine-4-carboxamide] displayed a melting point of 280 to 282 °C. The same measure for `O=C(Nc1nc(-c2ccco2)c(C(=O)C(F)(F)F)s1)c1ccncc1` [Compound 287, N-[4-(2-Furyl)-5-(trifluoroacetyl)thiazol-2-yl]pyridine-4-carboxamide]: 268 to 270 °C; for `N#Cc1ccc(C(=O)Nc2nc(-c3ccco3)c(C(=O)C3CCC3)s2)cc1` [Compound 332, 4-Cyano-N-[5-(cyclobutylcarbonyl)-4-(2-furyl)thiazol-2-yl]benzamide]: 220 to 225 °C. On to `O=C(CN1CCN(c2ccccc2)CC1)Nc1nc(-c2ccco2)c(C(=O)c2ccccn2)s1` [Compound 184, N-[4-(2-Furyl)-5-(pyridin-2-ylcarbonyl)thiazol-2-yl]-2-(4-phenylpiperazin-1-yl)acetamide], for which the melting point is 203 to 204 °C. As for `O=C(Nc1nc(-c2ccco2)c(C(=O)c2ccncn2)s1)c1ccncc1` [Compound 282, N-[4-(2-Furyl)-5-(pyrimidine-4-ylcarbonyl)thiazol-2-yl]pyridine-4-carboxamide], the melting point was over 300 °C.

With `CC(C)C(=O)c1sc(N)nc1-c1ccco1` [Compound 299, 2-Amino-4-(2-furyl)thiazol-5-yl isopropyl ketone], the melting point lay within 195 to 199 °C. Compound `O=C(Nc1nc(-c2ccco2)c(C(=O)c2ccccn2)s1)c1ccn(Cc2ccccc2)c(=O)c1` [Compound 140, 1-Benzyl-N-[4-(2-furyl)-5-(pyridin-2-ylcarbonyl)thiazol-2-yl]-2-oxo-1,2-dihydropyridine-4-carboxamide] registered a melting point of 269 to 270 °C. `Cc1csc(C(=O)c2sc(NC(=O)c3ccncc3)nc2-c2ccco2)n1` [Compound 257, N-[4-(2-Furyl)-5-(4-methylthiazol-2-ylcarbonyl)thiazol-2-yl]pyridine-4-carboxamide]: the melting point was in the range of 250 to 255 °C. The same measure for `N#Cc1ccc(C(=O)Nc2nc(-c3ccco3)c(C(=O)C3CCOCC3)s2)cc1` [Compound 379, 4-Cyano-N-[4-(2-furyl)-5-(tetrahydropyran-4-ylcarbonyl)-thiazol-2-yl]benzamide]: 231 to 234 °C; for `O=C(Nc1nc(-c2ccco2)c(C(=O)c2ccccn2)s1)c1ccccc1` [Compound 107, N-[4-(2-Furyl)-5-(pyridin-2-ylcarbonyl)thiazol-2-yl]-benzamide]: 165 to 171 °C; for `COCC#CC(=O)c1sc(NC(=O)c2ccncc2)nc1-c1ccco1` [Compound 319, N-[4-(2-Furyl)-5-(3-methoxyprop-1-ynylcarbonyl)thiazol-2-yl]pyridine-4-carboxamide]: 198 to 200 °C. Take `COc1ccc(OC)c(C(=O)Nc2nc(-c3ccco3)c(C(=O)C3CCOCC3)s2)c1` [Compound 390, N-[4-(2-Furyl)-5-(tetrahydropyran-4-ylcarbonyl)thiazol-2-yl]-2,5-dimethoxybenzamide]: the melting point was 107 to 110 °C. Then `O=C(Nc1nc(-c2ccco2)c(C(=O)C2CCOCC2)s1)c1ccc(N2CCOCC2)nc1` [Compound 408, N-[4-(2-Furyl)-5-(tetrahydropyran-4-ylcarbonyl)thiazol-2-yl]-2-morpholinopyridine-5-carboxamide], with 166 to 170 °C; and `COC[C@@H]1CCCN1CC(=O)Nc1nc(-c2ccco2)c(C(=O)C2CCOCC2)s1` [Compound 443, N-[4-(2-Furyl)-5-(tetrahydropyran-4-ylcarbonyl)thiazol-2-yl]-2-[(2S)-2-(methoxymethyl)pyrrolidin-1-yl]acetamide], with 102 to 103 °C; and `CN1CCN(CC(=O)Nc2nc(-c3ccco3)c(C(=O)C3CCOCC3)s2)CC1` [Compound 467, N-[4-(2-Furyl)-5-(tetrahydropyran-4-ylcarbonyl)thiazol-2-yl]-2-(4-methylpiperazin-1-yl)acetamide], with 106 to 112 °C. `O=C(CN1CCC2(CC1)OCCO2)Nc1nc(-c2ccco2)c(C(=O)C2CCOCC2)s1` [Compound 459, 2-(1,4-Dioxa-8-azaspiro[4.5]decan-8-yl)-N-[4-(2-furyl)-5-(tetrahydropyran-4-ylcarbonyl)thiazol-2-yl]acetamide] showed a melting point of 186 to 187 °C. Compound `O=C(Nc1nc(-c2ccco2)c(C(=O)C2CCC2)s1)C1CC1` [Compound 333, N-[5-(Cyclobutylcarbonyl)-4-(2-furyl)thiazol-2-yl]cyclopropanecarboxamide] returned a melting point of 200 to 205 °C.

`O=C(Nc1nc(-c2ccco2)c(C(=O)c2cccnn2)s1)c1ccncc1` [Compound 283, N-[4-(2-Furyl)-5-(pyridazine-3-ylcarbonyl)thiazol-2-yl]pyridine-4-carboxamide] came in with a melting point of 280 to 281 °C.

`O=C(Nc1nc(-c2ccco2)c(C(=O)c2ccn(Cc3ccccc3)c(=O)c2)s1)c1ccncc1` [Compound 278, N-[5-(1-Benzyl-2-oxo-1,2-dihydropyridin-4-ylcarbonyl)-4-(2-furyl)thiazol-2-yl]pyridine-4-carboxamide] had a melting point of 288 to 291 °C. The compound `Cn1ccc(C(=O)c2sc(NC(=O)c3ccncc3)nc2-c2ccco2)c1` [Compound 261, N-[4-(2-Furyl)-5-(1-methylpyrrol-3-ylcarbonyl)thiazol-2-yl]pyridine-4-carboxamide] showed a melting point of 209 to 211 °C. `O=C(Nc1nc(-c2ccco2)c(C(=O)C2CCOCC2)s1)c1ccsc1` [Compound 423, N-[4-(2-Furyl)-5-(tetrahydropyran-4-ylcarbonyl)thiazol-2-yl]thiophene-3-carboxamide] displayed a melting point of 227 to 229 °C. Then `O=C(CN1CCCCC1)Nc1nc(-c2ccco2)c(C(=O)C2CCOCC2)s1` [Compound 447, N-[4-(2-Furyl)-5-(tetrahydropyran-4-ylcarbonyl)thiazol-2-yl]-2-piperidinoacetamide], with 146 to 147 °C; and `O=C(COc1ccccc1)Nc1nc(-c2ccco2)c(C(=O)C2CCOCC2)s1` [Compound 434, N-[4-(2-Furyl)-5-(tetrahydropyran-4-ylcarbonyl)thiazol-2-yl]-2-phenoxyacetamide], with 148 to 150 °C. Turning to `O=C(CN1CCC(N2CCCCC2)CC1)Nc1nc(-c2ccco2)c(C(=O)c2ccccn2)s1` [Compound 178, N-[4-(2-Furyl)-5-(pyridin-2-ylcarbonyl)thiazol-2-yl]-2-(4-piperidinopiperidino)acetamide], the melting point was 214 to 220 °C (dec.).

`O=C(Nc1nc(-c2ccco2)c(C(=O)c2ccc(N3CCC(O)CC3)nc2)s1)c1ccncc1` [Compound 233, N-{4-(2-Furyl)-5-[2-(4-hydroxypiperidino)pyridin-5-ylcarbonyl]thiazol-2-yl}pyridine-4-carboxamide] displayed a melting point of 264 to 268 °C.

As for `CC(C)(C)C(=O)Nc1nc(-c2ccco2)c(C(=O)c2ccccn2)s1` [Compound 98, N-[4-(2-Furyl)-5-(pyridin-2-ylcarbonyl)thiazol-2-yl]-2,2-dimethylpropanamide], the melting point lay within 186 to 187 °C. On to `Cc1ncccc1C(=O)Nc1nc(-c2ccco2)c(C(=O)c2ccccn2)s1` [Compound 129, N-[4-(2-Furyl)-5-(pyridin-2-ylcarbonyl)thiazol-2-yl]-2-methylpyridine-3-carboxamide], for which the melting point lay within 186 to 187 °C. As to `O=C(c1ccccn1)c1sc(NC(=O)C2CCN(Cc3cccnc3)CC2)nc1-c1ccco1` [Compound 105, N-[4-(2-Furyl)-5-(pyridin-2-ylcarbonyl)thiazol-2-yl]-1-(pyridin-3-ylmethyl)piperidine-4-carboxamide], the melting point was 208 to 209 °C.

`CN1CCC(OC(=O)Nc2nc(-c3ccco3)c(C(=O)c3ccccn3)s2)CC1` [Compound 162, 1-Methylpiperidine-4-yl N-[4-(2-furyl)-5-(pyridin-2-ylcarbonyl)thiazol-2-yl]carbamate] had a melting point of 222 to 225 °C.

As to `COc1ccccc1C(=O)Nc1nc(-c2ccco2)c(C(=O)C2CC2)s1` [Compound 326, N-[5-(Cyclopropylcarbonyl)-4-(2-furyl)thiazol-2-yl]-2-methoxybenzamide], the melting point fell in the range of 150 to 154 °C. The same measure for `O=C(CN1CCCC1)Nc1nc(-c2ccco2)c(C(=O)C2CCOCC2)s1` [Compound 441, N-[4-(2-Furyl)-5-(tetrahydropyran-4-ylcarbonyl)thiazol-2-yl]-2-(1-pyrrolidinyl)acetamide]: 115 to 117 °C; for `O=C(Nc1nc(-c2ccco2)c(C(=O)c2ccnc(N3CCOCC3)c2)s1)c1ccncc1` [Compound 246, N-[4-(2-Furyl)-5-(2-morpholinopyridin-4-ylcarbonyl)thiazol-2-yl]pyridine-4-carboxamide]: 270 to 273 °C.
